Laboratory results taken from ChEMBL document CHEMBL5360627, “Total Synthesis of Kuwanons A and B and Discovery of Their Antibacterial Mechanism” (2023).
Converted amounts (≈) assume the structure as drawn. The source made the active and inactive calls. The rule behind the calls is not given here.

Experiments:
Enterococcus faecalis [1] = experiment: Antibacterial activity against Enterococcus faecalis ATCC 29212 assessed as reduction in bacterial growth incubated for 24 hrs by Mueller-Hinton broth based assay; assay type: functional
[2] = system: Staphylococcus epidermidis; experiment: Antibacterial activity against Staphylococcus epidermidis ATCC 14990 assessed as inhibition of bacterial growth incubated for 24 hrs by Mueller-Hinton broth based assay; assay type: functional
Staphylococcus aureus [3] = experiment: Antimicrobial activity against Staphylococcus aureus ATCC 29213 assessed as reduction in bacterial growth incubated for 24 hrs by Mueller-Hinton broth based assay; assay type: functional
Bacillus subtilis [4] = experiment: Antibacterial activity against Bacillus subtilis ATCC 6633 assessed as reduction in bacterial growth incubated for 24 hrs by Mueller-Hinton broth based assay; assay type: functional
Staphylococcus aureus [5] = experiment: Bactericidal activity against Staphylococcus aureus ATCC 29213 assessed as reduction in bacterial growth at 8 times MIC measured at 8 hrs by time-kill assay; assay type: functional
Staphylococcus aureus [6] = experiment: Bactericidal activity against Staphylococcus aureus ATCC 29213 assessed as reduction in bacterial growth at 8 microg/ml measured at 2 hrs by time-kill assay; assay type: functional, organism-based; conditions: dose 8.0 µg/ml
Staphylococcus aureus [7] = experiment: Antibacterial activity against Staphylococcus aureus ATCC 29213 assessed as inhibition of bacterial growth incubated for 18 hrs by CLSI based microdilution method; assay type: functional
Staphylococcus aureus [8] = experiment: Antibacterial activity against methicillin resistant-Staphylococcus aureus […] assessed as inhibition of bacterial growth incubated for 18 hrs by CLSI based microdilution method; assay type: functional
Cell membrane [9] = experiment: Induction of cell membrane disruption in Staphylococcus aureus ATCC 29213 assessed as appearance of round cell at 8 microg/ml incubated for 2 hrs by scanning electron microscopic analysis; assay type: subcellular; conditions: dose 8.0 µg/ml
Enterococcus faecalis [10] = experiment: Potency index, ratio of chloramphenicol MIC to test compound MIC for antibacterial activity against Enterococcus faecalis ATCC 29212 assessed as reduction in bacterial growth incubated for 24 hrs by Mueller-Hinton broth based assay; assay type: functional
Cell membrane [11] = experiment: Disruption of membrane integrity in Staphylococcus aureus ATCC 29213 assessed as increase in red fluorescence at 8 microg/ml incubated for 2 hrs by EthD-III dye based fluorescence microscopic analysis; assay type: subcellular; conditions: dose 8.0 µg/ml
Staphylococcus aureus [12] = experiment: Bactericidal activity against Staphylococcus aureus ATCC 29213 assessed as reduction in bacterial growth at 0.5 to 8 times MIC measured at 24 hrs by time-kill assay; assay type: functional, organism-based
Cell membrane [13] = experiment: Induction of cell membrane disruption in Staphylococcus aureus ATCC 29213 assessed as appearance of uneven cell at 8 microg/ml incubated for 2 hrs by scanning electron microscopic analysis; assay type: subcellular; conditions: dose 8.0 µg/ml
Staphylococcus aureus [14] = experiment: Bactericidal activity against Staphylococcus aureus ATCC 29213 assessed as reduction in bacterial growth at 8 microg/ml measured immediately by time-kill assay; assay type: functional, organism-based; conditions: dose 8.0 µg/ml
Cell membrane [15] = experiment: Induction of cell membrane disruption in Staphylococcus aureus ATCC 29213 assessed as appearance of wrinkled cell at 8 microg/ml incubated for 2 hrs by scanning electron microscopic analysis; assay type: subcellular; conditions: dose 8.0 µg/ml
Cell membrane [16] = experiment: Disruption of membrane integrity in Staphylococcus aureus ATCC 29213 assessed as increase in green fluorescence at 8 microg/ml incubated for 2 hrs by nuc-green dye based fluorescence microscopic analysis; assay type: subcellular; conditions: dose 8.0 µg/ml
Staphylococcus aureus [17] = experiment: Bactericidal activity against Staphylococcus aureus ATCC 29213 assessed as inhibition of bacterial growth measured at 8 hrs by time-kill assay; assay type: functional, organism-based
Cell membrane [18] = experiment: Induction of cell membrane disruption in Staphylococcus aureus ATCC 29213 assessed as appearance of ruptured cell at 8 microg/ml incubated for 2 hrs by scanning electron microscopic analysis; assay type: subcellular; conditions: dose 8.0 µg/ml
[19] = system: Staphylococcus epidermidis; experiment: Potency index, ratio of chloramphenicol MIC to test compound MIC for antibacterial activity against Staphylococcus epidermidis ATCC 14990 assessed as inhibition of bacterial growth incubated for 24 hrs by Mueller-Hinton broth based assay; assay type: functional
Cell membrane [20] = experiment: Induction of cell membrane disruption in Staphylococcus aureus ATCC 29213 assessed as increase in fluorescence intensity at 8 microg/ml incubated for 2 hrs by scanning electron microscopic analysis; assay type: subcellular; conditions: dose 8.0 µg/ml
Bacillus subtilis [21] = experiment: Potency index, ratio of chloramphenicol MIC to test compound MIC for antibacterial activity against Bacillus subtilis ATCC 6633 assessed as reduction in bacterial growth incubated for 24 hrs by Mueller-Hinton broth based assay; assay type: functional
Staphylococcus aureus [22] = experiment: Potency index, ratio of chloramphenicol MIC to test compound MIC for antimicrobial activity against Staphylococcus aureus ATCC 29213 assessed as reduction in bacterial growth incubated for 24 hrs by Mueller-Hinton broth based assay; assay type: functional

Structure (SMILES) | MIC (Enterococcus faecalis [1]) [µg/mL] | MIC [2] [µg/mL] | MIC (Staphylococcus aureus [3]) [µg/mL] | MIC (Bacillus subtilis [4]) [µg/mL] | Activity (Staphylococcus aureus [5]) [log10CFU/ml] | MIC (Staphylococcus aureus [7]) [µg/mL] | MIC (Staphylococcus aureus [8]) [µg/mL] | further results
O=C(N[C@H](CO)[C@H](O)c1ccc([N+](=O)[O-])cc1)C(Cl)Cl [CHLORAMPHENICOL] | 8 (≈ 24.8 µM) | 8 (≈ 24.8 µM) | 16 (≈ 49.5 µM) | 8 (≈ 24.8 µM) |  |  |  | 
CC1(C)S[C@@H]2[C@H](NC(=O)[C@H](N)c3ccccc3)C(=O)N2[C@H]1C(=O)O [AMPICILLIN] | 0.5 (≈ 1.43 µM) | 16 (≈ 45.8 µM) | 0.5 (≈ 1.43 µM) | 8 (≈ 22.9 µM) | 5 |  |  | Activity (Staphylococcus aureus [6]): inactive
CC(C)=CCc1c(-c2ccc(O)c3c2OC(C)(C)C=C3)oc2cc(O)cc(O)c2c1=O [KUWANON A] | 8 (≈ 19 µM) | 2 (≈ 4.76 µM) | 4 (≈ 9.51 µM) | 4 (≈ 9.51 µM) |  | 8 (≈ 19 µM) | 8 (≈ 19 µM) | 
CC(C)=CCc1c(-c2ccc3c(c2O)C=CC(C)(C)O3)oc2cc(O)cc(O)c2c1=O | 1 (≈ 2.38 µM) | 1 (≈ 2.38 µM) | 1 (≈ 2.38 µM) | 1 (≈ 2.38 µM) | 2 | 4 (≈ 9.51 µM) | 4 (≈ 9.51 µM) | Activity (Cell membrane [9]): Active; Ratio (Enterococcus faecalis [10]): 8; Activity (Cell membrane [11]): Active; Activity (Staphylococcus aureus [12]): inactive; Activity (Cell membrane [13]): Active; Activity (Staphylococcus aureus [14]): Active; Activity (Cell membrane [15]): Active; Activity (Cell membrane [16]): Active; Activity (Staphylococcus aureus [17]): Dose-Dependent Effect; Activity (Cell membrane [18]): Active; Ratio [19]: 8; Activity (Cell membrane [20]): Active; Ratio (Bacillus subtilis [21]): 8; Ratio (Staphylococcus aureus [22]): 8
